Laboratory results from patent EP0343223B1, “USE OF MELATONIN OR DERIVATIVES THEREOF FOR THE PRODUCTION OF PHARMACEUTICAL COMPOSITIONS EFFECTIVE TO COUNTERACT THE EFFECTS OF AGING” (priority 1987, dated 1989).

What was measured:
Type in all cases: in vivo
lipids in blood = assay: Lipids in blood of aging mice after chronic night melatonin treatment; conditions: data not shown
From the text: It follows that the increase of the production of thyroid hormones induced in vivo by exogenous melatonin should also be accompanied by an improved degradation of cholesterol, triglycerides and phospholipids and by detoxification effects at the liver level, all these beneficial effects resulting in a slowing down of the aging process.

T3 and T4 = T3 and T4 by radioimmunoassay in serum of aging mice after chronic night melatonin in drinking water
From the text: It can be seen (Table 1) that chronical treatment with melatonin in the drinking water in aging mice elevates the levels of T3 ([…]) and T4 (tyroxine) in their peripheral blood and corrects thus ageing-related thyroid dysfunction or lowered function.

[1] = tested on: C57BL/6J inbred male mice; assay: Nocturnal oral melatonin in the drinking water of aging mice: life span and body weight
Protocol: Experiments were initiated in 1985 in which groups of C57BL/6J inbred male mice, aged 575 days (10 mice per group), were given melatonin (10 µg/ml) in the drinking water while the controls received tap water containing the same amount of absolute ethanol used to prepare melatonin stock solution (1 ml ethanol in 10 liters of tap water). The drinking water with or without melatonin was given at 6 p.m. and removed at 8.30 a.m. The drinking water was changed twice weekly. Starting at 5 months after initiation of the nocturnal, oral melatonin treatment, when the mice reached two years of age, a striking difference of body weight and of general body and pelage conditions started to be evident. Although some of the mice died earlier in both groups, the majority of the surviving mice treated with melatonin maintained their optimal body weight until 28 to 33 months of age (35.8± 4 grams) while the untreated mice lost progressively weight and were all dead within 29 months of age. Average body weight of the control mice at 27 months of age was 27.8± 4 grams.
The last melatonin-treated mouse died at 3 years of age. These date though preliminary make it evident that melatonin treatment of aging mice prolonged their life or circa 20 percent (average 6 months longer). The life span of melatonin-treated mice was 931 ± 80 days while that of control mice was 755 ± 81 days (p < 0.01).

[2] = C3H/He female, age 23 months, 3 months of melatonin treatment
[3] = C3H/He female, age 23 months, 3 months of melatonin treatment, serum
[4] = C57BL/6 female, age 22 months, 5 months of melatonin treatment

In the case of `COc1ccc2[nH]cc(CCNC(C)=O)c2c1` [melatonin], the “aging-related increase of lipids in blood” value (lipids in blood) is reported as “corrects the aging-related increase of lipids in blood”, the “T3 change vs untreated” value (T3 and T4; [2]) is reported as “+25%” and the T4/T3 (T3 and T4; [2]) is reported as 42.47. The “T4/T3 change vs untreated” value (T3 and T4; [2]) was “+18%”, the “T4 change vs untreated” value (T3 and T4; [2]) was “+34%” and the T3 (T3 and T4; [3]) was 0.664± 0.137. For the same compound, the T4 (T3 and T4; [3]) was 28.2± 0.8, the “T3 change vs untreated” value (T3 and T4; [4]) was “+11%” and the T4/T3 (T3 and T4; [4]) was 54.27. The “T4/T3 change vs untreated” value (T3 and T4; [4]) was “+10%”, the “T4 change vs untreated” value (T3 and T4; [4]) was “+20%” and the T3 (T3 and T4; C57BL/6 female, age 22 months, 5 months of melatonin treatment, serum) was 0.691± 0.077. For the same compound, the “age at death of the last melatonin-treated mouse” value ([1]; C57BL/6J male mice) was 3 years, the life span ([1]; C57BL/6J male mice, melatonin 10 µg/ml in drinking water 6 p.m. to 8.30 a.m., from 575 days of age, p < 0.01 vs control) was 931 ± 80 days and the body weight ([1]; surviving melatonin-treated mice, maintained until 28 to 33 months of age, 10 µg/ml in drinking water at night, started at 575 days of age) was 35.8± 4 grams. For the same compound, the “average life prolongation (longer)” value ([1]; versus control mice) was 6 months and the prolonged their life ([1]; versus control mice) was “circa 20%”.
